Results on one molecule are retold here after PMC8152350, “High cytotoxicity of betulin towards fish and murine fibroblasts: Is betulin safe for nonneoplastic cells?” (BMC Veterinary Research, 2021).

Series [1] in a line: MTT assay (mitochondrial activity), murine fibroblasts. As to conditions: mouse. Here is the method:
(§1) NIH/3T3 (ATCC CRL-1658) mouse embryonic fibroblasts were grown in Dulbecco’s modified Eagle’s medium (DMEM) supplemented with 2 mM glutamine, 10 % foetal bovine serum and a 1 % antibiotic-antimycotic solution at 37 °C in a humidified atmosphere with 5 % CO2.
(§2) NIH/3T3 and BF-2 cells were seeded in 96-well plates at a density of 1 × 10^4 or 2 × 10^4 cells per well, respectively. After 24 h of incubation at an appropriate temperature, cells were exposed to betulin at the concentrations mentioned above for 24, 48 and 72 h. Control (untreated) cells served as the negative control and a reference point. Triton X-100 treated cells served as the positive internal control in MTT, NRU and LDH assays. Due to the specific character of SRB assay, there was no positive control in this test. After 24, 48 and 72 h of treatment, the four different cytotoxicity assays were performed. All experiments were repeated three times.
(§3) The MTT assay is used to estimate mitochondrial damage, since it determines the activity of mitochondrial enzymes. These enzymes reduce the water-soluble tetrazolium dye MTT to insoluble purple formazan, which accumulates inside viable cells.
(§4) The MTT assay was conducted using the protocol described by Mosmann, with some modifications described in our previous article.
(§5) The MTT assay was used to determine the cytotoxicity of both betulin and the vehicle (DMSO).
(§6) All experiments were repeated three times. […] Statistical analyses were performed using GraphPad Prism software (GraphPad Software, USA). Data were subjected to one-way analysis of variance (ANOVA). Dunnett’s posttest was used to determine differences between control and betulin-exposed cells at the same time points. Differences between the two cell lines at the same time points were determined using Student’s t-test. The 50 % cytotoxic concentrations (CC50, defined as the concentration of the compound that reduced cell viability by 50 %) were calculated using the Quest Graph™ ED50 Calculator (AAT Bioquest, Inc.).
(Tetrazolium dyes change colour on reduction, which living cells bring about.)

Series [2] has as its system NIH/3T3 cells. The description is as above. The method, then:
as §1, §2, §3, §4, §5, §6

A short description of series [3]: NRU assay (lysosomal membrane integrity), fish fibroblasts. The class given is cell-based, bluegill. As to conditions: bluegill, BF-2 caudal trunk fibroblasts, mean ± SD, n = 3. Here is the method: (§7) BF-2 (ATCC CCL-91) bluegill caudal trunk fibroblasts were grown in minimum essential medium (Eagle, EBSS) supplemented with 1 % nonessential amino acids (NEAAs), 10 % foetal bovine serum and 1 % antibiotic-antimycotic solution at 23 °C in a humidified atmosphere with 5 % CO2.
(§8) All experiments were repeated three times.
(§9) The NRU assay evaluates lysosomal membrane integrity. It measures neutral red dye accumulation within lysosomes of viable cells.
(§10) The NRU assay was performed using a commercially available kit (TOX4) (Sigma-Aldrich, Poland) according to the manufacturer’s protocol. The full description of the test procedure was also provided in a published article.

For series [4], the system named is BF-2 cells. Described as above. It is filed as cell-based, bluegill. As to conditions: BF-2, regardless of the time of incubation. The method, then: as §7, §8, §9, §10
A short description of series [5]: SRB assay (total cellular protein content), fish fibroblasts. The class given is cell-based, bluegill. As to conditions: bluegill, BF-2 caudal trunk fibroblasts, n = 3. Here is the method: as §7, §8
(§11) The sulforhodamine B colorimetric assay measures the cellular protein content, and the assay results are proportional to the number of cells.
(§12) The SRB assay was performed using a commercially available kit (TOX6) (Sigma-Aldrich, Poland) according to the manufacturer’s protocol. In this assay, SRB binds to protein components of trichloroacetic acid-fixed cells, and the protein-bound dye is extracted with Tris. The results obtained are presented as the percentage of the total cellular protein content in control (nontreated) cells.
(In general: The SRB assay estimates cell density from bound dye.)

Series [6] has as its system BF-2 cells. The series is described as above. As to conditions: BF-2. It is filed as cell-based, bluegill. Here is the method: as §7, §8, §11, §12
Series [7] relates to NIH/3T3 cells. The series is described as follows: LDH leakage assay (cellular membrane integrity), murine fibroblasts. It is filed as cell-based, mouse. As to conditions: NIH/3T3, 24 h. Here is the method:
as §8
The LDH assay measures leakage of the stable cytosolic enzyme lactate dehydrogenase into the culture medium, which is an indicator of irreversible cell membrane damage and cell death.
The LDH assay was performed using a commercially available kit (TOX7) (Sigma-Aldrich, Poland) according to the manufacturer’s protocol. The full description of the test procedure was also reported previously. The results obtained are reported as the percentage of LDH leakage to the culture media in control (nontreated) cells.
Background: Release of lactate dehydrogenase indicates damage to the cell membrane.

A short description of series [8]: Solubility of betulin in DMSO. It is filed as physicochemical. As to conditions: organic solvent or mixture, thermodynamic from solid, room temperature, read-out: maximum solubility of betulin in DMSO. Here is the method:
We were able to dissolve 5000 µg of betulin in 1 mL of DMSO, although it required heating, and the solution remained unstable. After mixing with the cell culture medium, the solution immediately became slightly turbid.
A stock solution of betulin was prepared in DMSO at a concentration of 2500 µg/mL, and working solutions were prepared in cell maintenance media (serum-free) at final concentrations of 0 (control cells), 0.244, 0.488, 0.976, 1.95, 3.9, 7.8, 15.625 and 31.25 µg/mL immediately before use in cell culture.

In series [9] the test system is veterinary pathogens, both bacterial and viral. Briefly: Antimicrobial activity towards veterinary pathogens (data not shown).
In series [10] the test system is U937. Also on record: method as in PMID 12697374. As to conditions: U937 leukaemia; read-out: IC50 of betulin; cited from earlier work.
Series [11] relates to SK-MEL-28. Also on record: method as in PMID 12697374. As to conditions: SK-MEL-28 melanoma; read-out: IC50 of betulin; cited from earlier work.
In series [12] the test system is NB-1. Set-up: method as in PMID 12697374. As to conditions: NB-1 neuroblastoma; read-out: IC50 of betulin; cited from earlier work.
Series [13] concerns DLD-1. Also on record: method as in PMID 16787747. As to conditions: read-out: IC50 of betulin; cited from earlier work.
In series [14] the test system is MCF-7 (breast cancer). Set-up: method as in PMID 22627971, PMID 23379693. As to conditions: MCF-7, 20 µM; cited from earlier work.
Series [15] deals with P388 (murine leukaemia). Also on record: method as in PMID 23595090. As to conditions: P388, MTT assay; cited from earlier work.
In series [16] the test system is porcine chondrocytes. As to conditions: cited from earlier work.

Molecules are shown by their SMILES. Values after ≈ are worked out from the molar mass of the structure shown.

For `C=C(C)[C@@H]1CC[C@]2(CO)CC[C@]3(C)[C@H](CC[C@@H]4[C@@]5(C)CC[C@H](O)C(C)(C)[C@@H]5CC[C@]43C)[C@@H]12` [betulin, Betulin], the CC50 at 24 h in series [1] was 1.532 ± 0.005 µg/mL (≈ 3.46 µM); in [3] (BF-2, 24 h, read-out: CC50 betulin NRU 24 h), 27.6 ± 9.01 µg/mL (≈ 62.4 µM); in series [5] (BF-2, 24 h, read-out: CC50 betulin SRB 24 h), more than 31.2 µg/mL. Further, the CC50 at 48 h was 1.58 ± 0.64 µg/mL (≈ 3.58 µM) in series [1]; 16.5 ± 3.6 µg/mL (≈ 37.2 µM) in series [3] (BF-2, 48 h, read-out: CC50 betulin NRU 48 h); more than 31.2 µg/mL in series [5] (BF-2, 48 h, read-out: CC50 betulin SRB 48 h). The CC50 at 72 h in series [1] was 1.85 ± 0.647 µg/mL (≈ 4.19 µM); in series [3] (BF-2, 72 h, read-out: CC50 betulin NRU 72 h), 14.5 ± 3.41 µg/mL (≈ 32.8 µM); in series [5] (BF-2, 72 h, read-out: CC50 betulin SRB 72 h) it was more than 31.2 µg/mL. Besides, the “decrease in cell viability in the MTT assay” value in [2] (NIH/3T3, betulin 7.8 µg/mL, 72 h) is reported as “approximately 80%”. For the same molecule, in series [2] (mouse cells, 24 h, threshold persisted until termination of the experiment), the “betulin concentration causing statistically significant decrease in viability (MTT)” value is given as not below 1.95 µg/mL. Further, in [4], the “betulin concentration causing considerable decrease in viability (NRU)” value is listed as “at least 15.625 µg/mL”. In addition, the “betulin concentration causing considerable decrease in the number of cells (SRB)” value in series [6] was “at least 15.625 µg/mL”. In series [7], the “betulin concentration inducing substantial LDH leakage” value was found to be 7.8 µg/mL. The solubility (as a rule, the dissolved amount per volume that the medium holds) in series [8] was 2500 µg/mL (≈ 5650 µM). Moreover, the “antimicrobial activity towards tested veterinary pathogens” value in [9] is “did not confirm the antimicrobial activity”. Moreover, the IC50 (commonly the concentration that inhibits the measured activity by half) in series [10] is 14.4 µM; in [11] it was 16.2 µM; in [12] it was 16.5 µM; in series [13] it was 6.6 µM. The “inhibitory activity of betulin” value in series [14] is on record as 53.2%. Further, the IC50 of betulin in series [15] is 5.5 µg/mL. In [16], the “betulin concentrations not affecting integrity of the cytoplasmic membrane (LDH)” value is listed as “up to 5.12 µg/mL”.
